From BindingDB's records for doi:10.7270/Q2D50KC1 (The Scripps Research Institute Molecular Screening Center, 2007) come the findings set out here.

For orientation: IC50 means the concentration that inhibits the measured activity by half. Lower therefore signals greater potency.

A value given as a limit tells only on which side of the number the result lay.

The target in this assay is Sphingosine 1-phosphate receptor 3 (Homo sapiens, UniProt Q99500). As to the kind of experiment: S1P3 receptor NFAT-BLA reporter inhibition, dose response, counter-screen for 5HT1E antagonist project, CHO cells, Ga15, NFAT beta-lactamase, FRET (AID 776). For orientation: The purpose of a counterscreen is to sort out artefacts and off-target activity.
Sequence of Sphingosine 1-phosphate receptor 3 (Q99500 whole entry): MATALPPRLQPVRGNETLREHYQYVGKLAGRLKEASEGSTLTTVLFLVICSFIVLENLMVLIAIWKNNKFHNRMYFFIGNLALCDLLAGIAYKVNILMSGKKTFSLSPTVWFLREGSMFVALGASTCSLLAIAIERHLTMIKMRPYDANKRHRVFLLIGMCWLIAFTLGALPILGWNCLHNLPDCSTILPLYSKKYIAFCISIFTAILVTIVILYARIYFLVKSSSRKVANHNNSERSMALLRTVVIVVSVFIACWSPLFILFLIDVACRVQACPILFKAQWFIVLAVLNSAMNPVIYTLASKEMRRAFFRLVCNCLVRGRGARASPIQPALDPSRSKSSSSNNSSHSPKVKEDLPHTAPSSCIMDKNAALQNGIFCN

For the molecule `CN(C)c1nc(OCCNC(=O)COc2ccc(Cl)cc2Cl)nc(N2CCCCC2)n1` [SMR000072558], the IC50 was > 50 µM.

`Cn1c(-c2c(N)n(C3CCCC3)c3nc4ccccc4nc23)nc2ccccc21` [1-cyclopentyl-3-(1-methyl-2-benzimidazolyl)-2-pyrrolo[3,2-b]quinoxalinamine] displayed an IC50 of 2.04 µM.

As to `CCC(NC(=O)Nc1nnc(C(F)(F)F)s1)(C(F)(F)F)C(F)(F)F`, the IC50 was > 12.4 µM.

In the case of `CC(=O)Nc1cc(OC(C)=O)c2nonc2c1OC(C)=O` [Acetic acid 7-acetoxy-5-acetylamino-benzo[1,2,5]oxadiazol-4-yl ester], the IC50 came to 1.82 µM.

As for `CCOc1cccc(-c2nnc3n2N=C(c2cc(OC)ccc2OC)CS3)c1` [MLS000081451], the IC50 is > 17.7 µM.

`CS(=O)(=O)c1nc(-c2ccccc2)cc(C(F)(F)F)n1` [MLS000044644] returned an IC50 of 3.51 µM.

With `CS(=O)(=O)c1nc(-c2ccco2)cc(C(F)(F)F)n1` [MLS000044646], the midpoint of inhibition, the IC50, lay at 4.88 µM.

Consider `COc1cc2c(cc1OC)-c1cc(N3CCCc4ccccc43)nc(=O)n1CC2` [2-(3,4-dihydro-2H-quinolin-1-yl)-9,10-dimethoxy-6,7-dihydropyrimido[6,1-a]isoquinolin-4-one], for which the IC50 is > 17.7 µM.

As to `CC(=O)Oc1ccc(-n2c(O)c3c(c2O)C2(C)C=CC3(C)O2)cc1` [MLS000107813], half-maximal inhibition (IC50) required 7.56 µM.

Turning to `CCn1c(=O)c(C(=O)Nc2nc3ccccc3[nH]2)c(O)c2ccccc21` [MLS000027148], the half-maximal inhibitory concentration (IC50) was > 12.4 µM.

Consider `COc1cccc(N2CCN(c3ncnc4c3[nH]c3ccccc34)CC2C)c1` (stereo not drawn) [4-[4-(3-methoxyphenyl)-3-methyl-1-piperazinyl]-5H-pyrimido[5,4-b]indole], for which the midpoint of inhibition, the IC50, lay at 4.3 µM.

Molecule `O=S1(=O)C=C(Sc2nnc(-c3ccccc3)o2)c2ccccc21` came in with an IC50 of 2.33 µM.

For the molecule `COc1cc2c(cc1OC)C1=C(C#N)CC=C(NS(=O)(=O)c3ccccc3)N1CC2` [SMR000092093], the IC50 is > 50 µM.

As to `N#CCCS(=O)(=O)c1nnnn1-c1ccccc1` [3-(1-phenyltetrazol-5-yl)sulfonylpropanenitrile], the half-inhibitory concentration (IC50) was found to be 3.33 µM.

`CSc1ccccc1NC=C1C(=O)CC(C)(C)CC1=O` [SMR000111352]: half-maximal inhibition (IC50) required 4.33 µM.

On to `COc1ccc(C2N(c3ccc(F)cc3)C(=O)C3CCCN32)cc1` (stereo not drawn) [SMR000094164], for which the IC50 is > 50 µM.

Take `OCC12C=CC(O1)c1c2c(O)n(-c2ccc(-c3ccccc3)cc2)c1O` (stereo not drawn): the IC50 was > 12.4 µM.

As to `CCN(CC)c1ccc2c(Cl)c(Br)c(=O)oc2c1`, half-maximal inhibition (IC50) was put at 1.68 µM.

`CCCOc1ccc2nc(NC(=O)OC)[nH]c2c1` [SMR000058208]: the IC50 was > 50 µM.

For the molecule `COc1ccc(-n2nnnc2S(=O)(=O)CC(=O)N2CCCCC2)cc1` [2-[1-(4-methoxyphenyl)tetrazol-5-yl]sulfonyl-1-piperidin-1-ylethanone], the IC50 worked out at 4.32 µM.

On to `CCCOCCOC(=O)c1[nH]c2c(c1C)C(=O)CC(c1cc(OC)ccc1OC)C2` (stereo not drawn), for which the IC50 is > 39 µM.

On to `COc1cccc(N2CCN(c3ncnc4c3[nH]c3ccc(F)cc34)CC2C)c1` (stereo not drawn) [8-fluoranyl-4-[4-(3-methoxyphenyl)-3-methyl-piperazin-1-yl]-5H-pyrimido[5,4-b]indole], for which the IC50 turned out to be 0.934 µM.

On to `CCOc1ccc(C2=Nn3c(nnc3-c3ccccc3OC)SC2)cc1` [6-(4-ethoxyphenyl)-3-(2-methoxyphenyl)-7H-[1,2,4]triazolo[3,4-b][1,3,4]thiadiazine], for which the IC50 is > 12.4 µM.

Consider `O=C(Nc1ccc(-c2nc3ncccc3o2)cc1)c1ccc(Br)o1`, for which the IC50 was > 50 µM.

Consider `Cc1ccc(S(=O)(=O)Nc2cccc3ncccc23)s1` [5-methyl-N-quinolin-5-ylthiophene-2-sulfonamide], for which the IC50 is > 39 µM.

`COc1cccc(N2CCN(c3ncnc4c3cnn4-c3ccc(C)cc3C)CC2)c1` [SMR000017007] displayed an IC50 of 5.06 µM.

Regarding `COc1ccccc1-c1nnc2n1N=C(c1ccc(O)c(O)c1)CS2` [(4E)-4-[3-(2-methoxyphenyl)-5H-[1,2,4]triazolo[3,4-b][1,3,4]thiadiazin-6-ylidene]-2-oxidanyl-cyclohexa-2,5-dien-1-one], the IC50 was > 50 µM.

`COC(=O)/C(=C1/Oc2cc(C)oc(=O)c2S1)C(F)(F)F` [methyl (2E)-3,3,3-tris(fluoranyl)-2-(6-methyl-4-oxidanylidene-[1,3]oxathiolo[4,5-c]pyran-2-ylidene)propanoate]: the IC50 was found to be 1.42 µM.

With `Cc1ccc(N(CC2=NCCN2)c2cccc(O)c2)cc1` [SMR000059054], the IC50 is > 50 µM.

With `N#C/C(=C/c1ccc(N2CCCCCC2)o1)c1ccc(F)cc1` [MLS000051438], the IC50 was 4.69 µM.

Regarding `Clc1ccc(-n2nnnc2Sc2ncnc3sccc23)cc1` [SMR000066808], the midpoint of inhibition, the IC50, lay at 7.55 µM.

On to `CC(C)=CCC(C)(C)CNC(=O)NC1CCCCC1`, for which the IC50 was > 50 µM.

Take `Cc1ccc(-n2nc3c([n+]2[O-])CCc2c-3n[o+]n2[O-])cc1` [7-(4-methylphenyl)-3,6-dioxido-4,5-dihydrotriazolo[4,5-e][2,1,3]benzoxadiazole-3,6-diium]: the IC50 turned out to be 5.78 µM.

`COc1ccc(-c2cc(C(F)(F)F)nc(S(C)(=O)=O)n2)cc1OC` [4-(3,4-dimethoxyphenyl)-2-methylsulfonyl-6-(trifluoromethyl)pyrimidine]: inhibition was half-maximal at 5.18 µM (IC50).

`CCCc1nnc2n1N=C(c1ccc(OC)c(OC)c1)CS2` [SMR000057783]: the IC50 was > 50 µM.

Molecule `CCn1nc(-c2cccs2)nc2c(=O)n(C)c(=O)nc1-2` [1-ethyl-6-methyl-3-thiophen-2-yl-pyrimido[5,4-e][1,2,4]triazine-5,7-dione] gave an IC50 of 0.815 µM.

Consider `CS(=O)(=O)c1nc(-c2cccs2)cc(C(F)(F)F)n1` [MLS000044645], for which the IC50 was determined as 3.45 µM.

`COc1ccc(-n2c(O)cc(NCc3ccncc3)c2O)cc1` [MLS000099014]: the IC50 is > 50 µM.

`COC(=O)Nc1nc2ccc(Sc3ccccc3)cc2[nH]1` [FENBENDAZOLE]: the IC50 was > 50 µM.

Consider `CCn1nc(-c2ccccc2)nc2c(=O)n(C)c(=O)nc1-2` [1-Ethyl-6-methyl-3-phenyl-1H-pyrimido[5,4-e][1,2,4]triazine-5,7-dione], for which the IC50 was determined as 1.08 µM.

On to `COc1cc(NS(=O)(=O)c2ccc(C)cc2)c2ncccc2c1` [SMR000071147], for which the IC50 is > 39 µM.

Turning to `O=C(Nc1ccc(N2CCOCC2)cc1)Nc1ccc2nc(-c3ccco3)c(-c3ccco3)nc2c1` [N-(2,3-di-2-furyl-6-quinoxalinyl)-N'-[4-(4-morpholinyl)phenyl]urea], the half-maximal inhibitory concentration (IC50) is > 12.4 µM.

For `COCCOC(=O)c1[nH]c2c(c1C)C(=O)CC(c1ccccc1)C2` (stereo not drawn) [SMR000025505], the IC50 was > 50 µM.
